Experimental data reported in patent publication US20070179084A1, “Process for reducing the concentration of blood glucose in a diabetic patient” (Nation Chiao Tung University, priority 2006, published 2007).

How the values were obtained:
C2C12 cells [1] = assay: Observation of change in cell type, floating and damage of C2C12 cells after stimulation
Description: In FIG. 4, the columns with the same patterns represent the C2C12 cells stimulated by the same metal ion (or oxidized metal ion) solutions and the sign under the transverse axle indicates the concentration of the metal ion (or oxidized metal ion) solution, corresponding to each column.
In FIG. 8, the columns with the same patterns represent treatment with the same complex and the sign under the transverse axle indicates the concentration of the complex corresponding to each column.

C2C12 cells [2] = assay: Glucose absorption (2-deoxy-D-glucose uptake) by differentiated C2C12 myotubes, Amplex Red Glucose/Glucose Oxidase Assay Kit; format: cell-based, mouse; conditions: for glucose absorption in contrast to C2C12 cells without stimulation (in words): 0.1 μM, 1 μM, 10 μM and 100 μM metal solution
Method: The cells are cultured and differentiate. […] Then, a half of the culture media are removed and replaced with fresh differentiation media (90% DMEM (Dulbecco's Modified Eagle's Medium) and 10% FBS (fetal bovine serum)). […] In normal physiological conditions, the myotube differentiates from the myoblast and aggregates to form muscle. Therefore, the myotube has a cell type most similar to muscle, so that the cell type of used cells is a myotube in the whole test experiment. The glucose extracted from the cells is determined. […] When starting the experiment, add the stimulating samples with suitable concentration to the culture media and incubate at 37° C. for 30 minutes (mins). […] Finally, incubate the cells on ice for 10 mins, to stop the reaction. Then, remove the culture media, and wash the cells three times with an ice-cold PBS solution. After washing, scrape the cells from the plate with ice-cold 65% EtOH and sonicate the cells. After spun in a centrifuge at 13000 rpm and 4° C. for 15 mins, transfer the supernatant to fresh the eppendorf tube and then spin the remainder in the centrifuge again to collect the supernatant again. The collected supernatants are mixed and dry the supernatant by vacuum centrifugation. After drying, the sample is acquired and assayed for […] levels using the Amplex Red Glucose/Glucose Oxidase Assay Kit.

[3] = 0.1 μM metal solution, co-treatment with 1 μM insulin, vs no stimulating sample
[4] = 1 μM metal solution, co-treatment with 10 μM insulin, vs no stimulating sample
[5] = 10 μM metal solution, co-treatment with 6 pM insulin, vs no stimulating sample
[6] = 100 μM metal solution, 30 min, vs C2C12 cells without stimulation
[7] = 100 μM metal solution, co-treatment with 1 μM insulin, vs no stimulating sample
[8] = 1 mM metal solution and the insulin
[9] = 1 mM metal solution, no insulin
[10] = 40 mg/ml solution including 1 mM metal ion, no insulin
[11] = 10 μM metal solution, 30 min, vs C2C12 cells without stimulation
[12] = 40 μg/ml complex, co-treated with 10 μM insulin, vs no stimulating sample
[13] = 40 mg/ml complex solution including 1 mM metal ion and the insulin

Compound | fold increase in glucose absorption (C2C12 cells [2]; [3]) [fold] | glucose absorption in contrast to C2C12 cells without stimulation (in words) (C2C12 cells [2]) | fold increase in glucose absorption (C2C12 cells [2]; [4]) [fold] | fold increase in glucose absorption (C2C12 cells [2]; [5]) [fold] | fold increase in glucose absorption (C2C12 cells [2]; [6]) [fold] | fold increase in glucose absorption (C2C12 cells [2]; [7]) [fold] | fold increase in glucose absorption (C2C12 cells [2]; [8]) [fold] | fold increase in glucose absorption (C2C12 cells [2]; [9]) [fold] | fold increase in glucose absorption (C2C12 cells [2]; [10]) [fold] | fold increase in glucose absorption (C2C12 cells [2]; [11]) [fold] | fold increase in glucose absorption (C2C12 cells [2]; [12]) [fold] | fold increase in glucose absorption (C2C12 cells [2]; [13]) [fold] | also measured
[Co+3] [Co^3+, cobalt (III) ion] | 7.73 | enhanced | 4.37 | 3.95 | 3.14 | 8.5 | 4.4 | 2.5 | 3.0 | – | – | – | change of cell type / damage of C2C12 cells (C2C12 cells [1]; 100 μM metal solution with insulin co-treatment): the type of C2C12 cells changes and the C2C12 cells are damaged; change of cell type / damage of C2C12 cells (C2C12 cells [1]; stimulation for 30 mins, 100 μM (high concentration) for metal solution): damaged at a certain level
[Cr+3] [Cr^3+, chromium (III) ion] | 4.84 | enhanced | – | 2.36 | 2.41 | 3.74 | 1.3 | 1.6 | 3.9 | 2.21 | – | – | fold increase in glucose absorption (C2C12 cells [2]; 1 μM metal solution, co-treatment with 1 μM insulin, vs no stimulating sample): 3.71 fold
[O]=[V+2] [VO^2+, vanadyl] | – | enhanced | 2.7 | – | 2.38 | 3.4 | 2.7 | 1.9 | 4.4 | 2.61 | – | – | fold increase in glucose absorption (C2C12 cells [2]; 0.1 μM metal solution, co-treatment with 0.1 μM insulin, vs no stimulating sample): 2.62 fold; fold increase in glucose absorption (C2C12 cells [2]; 10 μM metal solution, co-treatment with 10 μM insulin, vs no stimulating sample): 6.21 fold
Co-TF: complex of the transferrin and Co^3+, from apo-transferrin and Co^3+ solution (3:1 mole ratio) | – | – | – | – | – | – | – | – | – | – | 7.01 | 7.1 | fold increase in glucose absorption (C2C12 cells [2]; 100 μg/ml complex, vs no stimulating sample): 4.97 fold
Cr-TF: complex of the transferrin and Cr^3+ | – | – | – | – | – | – | – | – | – | – | 4.94 | 5.0 | fold increase in glucose absorption (C2C12 cells [2]; 80 μg/ml complex, vs no stimulating sample): 4.03 fold
VO-TF: complex of the transferrin and VO^2+ | – | – | – | – | – | – | – | – | – | – | 6.07 | 6.1 | fold increase in glucose absorption (C2C12 cells [2]; 40 μg/ml complex, vs no stimulating sample): 4.43 fold
